In patent US20050075375A1 (priority 2003, published 2005):
pEC50: −log10 of the molar value. Read-outs that look alike come from different tables or passages of the source.

Tested on: monocistronic NK5.1 HCV replicon in Huh7 cells
Experiment: HCV replicon assay, monocistronic replicon cell line
Format: cell-based, hepatitis C virus
Settings: Hepatitis C virus, read-out: Mono EC50 Median
Method in brief: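 EC50 derives from the HCV RNA/GAPDH RNA ratio by one-step TaqMan RT-PCR, relative to DMSO-only wells. Compounds (six half-log concentrations, 0.6% DMSO) were incubated 3 days at 37 °C with NK5.1 monocistronic replicon Huh7 cells plated a day earlier.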

[1] = Huh-7, 72 h, table T3 (compounds 471-640), monocistronic replicon in Huh7 cells, 3 days incubation, HCV RNA/GAPDH RNA by TaqMan RT-PCR
[2] = Huh-7, 72 h, Table 1, monocistronic replicon in Huh7 cells, 3 days incubation, HCV RNA/GAPDH RNA by TaqMan RT-PCR
[3] = Huh-7, monocistronic NK5.1 HCV replicon in Huh7 cells, median value

Structure (SMILES) | pEC50 [1] | pEC50 [2] | pEC50 [3]
CCN(CC)c1ccc(-c2nc(-c3ccc(C(F)(F)F)cn3)n[nH]2)c(O)c1 [Compound 521, 5-Diethylamino-2-[5-(5-trifluoromethyl-pyridin-2-yl)-2H-[1,2,4]triazol-3-yl]-phenol] | < 4.72 |  | 
Cc1cc(-c2cc(C)c(C)cc2O)n(-c2ccccc2C)n1 [Compound 10, 4,5-Dimethyl-2-(5-methyl-2-o-tolyl-2H-pyrazol-3-yl)-phenol] |  | < 4.72 | 
COc1ccc(O)c(-c2nc(-c3ccc(NC(C)=O)cn3)n[nH]2)c1 [Compound 595, N-{6-[5-(5-methoxy-2-hydroxy-phenyl)-1H-[1,2,4]triazol-3-yl]-pyridin-3-yl}-acetamide] | 4.38 |  | 
Cc1cccc(-c2n[nH]c(-c3cc(Cl)ccc3O)n2)n1 [Compound 395, 4-Chloro-2-(5-(6-methyl-pyridin-2-yl)-2H-[1,2,4]triazol-3-yl)-phenol] |  |  | < 4.72
Cc1cccnc1-c1nc(-c2cc(O)ccc2O)n(C)n1 [Compound 616, 4-Hydroxy-2-[2-methyl-5-(3-methyl-pyridin-2-yl)-2H-[1,2,4]triazol-3-yl]-phenol] | 4.45 |  | 
Cc1cc(-c2ccc3ccccc3c2O)nn1-c1ccc(C(C)C)cc1 [Compound 29, 2-[1-(4-Isopropyl-phenyl)-5-methyl-1H-pyrazol-3-yl]-naphthalen-1-ol] |  | < 4.72 | 
Oc1ccc2ccccc2c1-c1nc(-c2ncccc2Br)no1 [Compound 256, 1-[3-(3-Bromo-pyridin-2-yl)-[1,2,4]oxadiazol-5-yl]-naphthalen-2-ol] |  |  | 5.68
Cc1cccnc1-c1noc(-c2ccc(NCc3ccccc3)cc2O)n1 [Compound 288, 5-Benzylamino-2-[3-(3-methyl-pyridin-2-yl)-[1,2,4]oxadiazol-5-yl]-phenol] |  |  | 6.10
COc1ccc(O)c(-c2ccn(-c3ccc(C(=O)N4CCCCC4)cn3)n2)c1 [Compound 102, {6-[3-(2-Hydroxy-5-methoxy-phenyl)-pyrazol-1-yl]-pyridin-3-yl)-piperidin-1-yl-methanone] |  | < 4.49 | 
COc1cccc(-c2nc(-c3ncccc3C)no2)c1O [Compound 184, 2-Methoxy-6-[3-(3-methyl-pyridin-2-yl)-[1,2,4]oxadiazol-5-yl]-phenol] |  | 6.17 | 
Oc1ccc(Cl)cc1-c1nc(-c2ccccn2)n[nH]1 [Compound 354, 4-Chloro-2-(5-pyridin-2-yl-2H-[1,2,4]triazol-3-yl)-phenol] |  |  | 5.32
Cc1cccc(-c2n[nH]c(-c3c(F)cccc3F)n2)n1 [Compound 468, 2-[5-(2,6-Difluoro-phenyl)-1H-[1,2,4]triazol-3-yl]-6-methyl-pyridine] |  |  | < 4.49
CCCNC(=O)c1cc(-c2ccc3ccccc3c2)n(-c2ncccc2C(F)(F)F)n1 [Compound 77, 5-Naphthalen-2-yl-1-(3-trifluoromethyl-pyridin-2-yl)-1H-pyrazole-3-carboxylic acid propylamide] |  | < 4.49 | 
CCOc1ccc(-c2nc(-c3ncccc3C)no2)c(O)c1 [Compound 243, 5-Ethoxy-2-[3-(3-methyl-pyridin-2-yl)-[1,2,4]oxadiazol-5-yl]-phenol] |  | 5.66 | 5.66
O=[N+]([O-])c1ccc(O)c(-c2nc(-c3cnccc3C(F)(F)F)n[nH]2)c1 [Compound 412, 4-Nitro-2-[5-(4-trifluoromethyl-pyridin-3-yl)-2H-[1,2,4]triazol-3-yl]-phenol] |  |  | < 4.72
COc1ccc(-c2nc(-c3ncccc3-c3ccccc3)no2)c(O)c1 [Compound 235, 5-Methoxy-2-[3-(3-phenyl-pyridin-2-yl)-[1,2,4]oxadiazol-5-yl]-phenol] |  | 5.64 | 5.64
Cc1cccnc1-c1noc(-c2cc(Br)ccc2O)n1 [Compound 190, 4-Bromo-2-[3-(3-methyl-pyridin-2-yl)-[1,2,4]oxadiazol-5-yl]-phenol] |  | 6.16 | 
Cc1cc(-c2ccccc2O)nn1-c1ccccc1C(F)(F)F [Compound 7, 2-[5-Methyl-i-(2-trifluoromethyl-phenyl)-1H-pyrazol-3-yl]-phenol] |  | 4.70 | 
COc1cccc(-c2nc(-c3ccc(NC(=O)OC(C)(C)C)cn3)no2)c1O [Compound 237, {6-[5-(2-Hydroxy-3-methoxy-phenyl)-[1,2,4]oxadiazol-3-yl]-pyridin-3-yl}-carbamic acid tert-butyl ester] |  | < 4.49 | < 4.49
CCOC(=O)c1cc(-c2ccc3ccccc3c2)n(-c2ncccc2C(F)(F)F)n1 [Compound 67, 5-Naphthalen-2-yl-1-(3-trifluoromethyl-pyridin-2-yl)-1H-pyrazole-3-carboxylic acid ethyl ester] |  | 4.66 | 
CCOC(=O)c1cc(-c2ccc3ccccc3c2)nn1-c1ccccn1 [Compound 65, 5-Naphthalen-2-yl-2-pyridin-2-yl-2H-pyrazole-3-carboxylic acid ethyl ester] |  | < 4.49 | 
COc1ccccc1-c1ccn(-c2ncccc2[N+](=O)[O-])n1 [Compound 36, 2-[3-(2-Methoxy-phenyl)-pyrazol-1-yl]-3-nitro-pyridine] |  | 5.64 | 
CSc1ccc(O)c(-c2nc(-c3ncccc3C)no2)c1 [Compound 294, 2-[3-(3-Methyl-pyridin-2-yl)-[1,2,4]oxadiazol-5-yl]-4-methylsulfanyl-phenol] |  |  | 6.70

Structure (SMILES) | pEC50 [1] | pEC50 [2] | pEC50 [3]
Cc1cc(-c2c(O)ccc3ccccc23)nn1-c1ncccc1C(F)(F)F [Compound 26, 1-[5-Methyl-1-(3-trifluoromethyl-pyridin-2-yl)-1H-pyrazol-3-yl]-naphthalen-2-ol] |  | < 4.72 | 
COc1ccc(O)c(-c2noc(-c3ccco3)n2)c1 [Compound 302, 2-(5-Furan-2-yl-[1,2,4]oxadiazol-3-yl)-4-methoxy-phenol] |  |  | 4.80
CC(C)(C)OC(=O)Nc1ccc(-c2noc(-c3cc(Br)ccc3O)n2)nc1 [Compound 244, {6-[5-(5-Bromo-2-hydroxy-phenyl)-[1,2,4]oxadiazol-3-yl]-pyridin-3-yl}-carbamic acid tert-butyl ester] |  | 5.14 | 5.14
Cc1cccnc1-c1nc(-c2cc(Cl)ccc2O)n(C)n1 [Compound 610, 4-Chloro-2-[2-methyl-5-(3-methyl-pyridin-2-yl)-2H-[1,2,4]triazol-3-yl]-phenol] | 5.60 |  | 
CCOc1cccc(-c2nc(-c3ncccc3C(F)(F)F)n[nH]2)c1O [Compound 536, 6-Ethoxy-2-[5-(3-trifluoromethyl-pyridin-2-yl)-2H-[1,2,4]triazol-3-yl]-phenol] | < 4.72 |  | 
CCCNC(=O)c1cc(-c2ccc3ccccc3c2)nn1-c1ccccn1 [Compound 71, 5-Naphthalen-2-yl-2-pyridin-2-yl-2H-pyrazole-3-carboxylic acid propylamide] |  | 4.68 | 
FC(F)(F)c1ccncc1-c1n[nH]c(-c2ccc(Br)cc2)n1 [Compound 430, 3-[5-(4-Bromo-phenyl)-1H-[1,2,4]triazol-3-yl]-4-trifluoromethyl-pyridine] |  |  | < 4.72
Cc1c2c(=O)oc3ccccc3c2nn1-c1ccccn1 [Compound 94] |  | 5.05 | 
COc1ccc(-c2ccn(-c3ncccc3C(F)(F)F)n2)c(OCc2ccccc2)c1 [Compound 90] |  | 5.36 | 
Cc1ccc(O)c(-c2nc(-c3ncccc3Br)n[nH]2)c1 [Compound 493, 2-[5-(3-Bromo-pyridin-2-yl)-2H-[1,2,4]triazol-3-yl]-4-Methyl-phenol] | 4.80 |  | 
COc1ccc(-c2ccn(-c3ccccn3)n2)c(O)c1 [Compound 88, 5-Methoxy-2-(1-pyridin-2-yl-1H-pyrazol-3-yl)-phenol] |  | < 4.49 | 
Cn1nc(-c2ccccn2)nc1-c1cc(Cl)ccc1O [Compound 599, 4-Chloro-2-(2-methyl-5-pyridin-2-yl-2H-[1,2,4]triazol-3-yl)-phenol] | 4.92 |  | 
O=C(O)c1cc(-c2ccc3ccccc3c2)nn1-c1ncccc1C(F)(F)F [Compound 78, 5-Naphthalen-2-yl-2-(3-trifluoromethyl-pyridin-2-yl)-2H-pyrazole-3-carboxylic acid] |  | < 4.49 | 
c1ccc(COc2ccc3ccccc3c2-c2ccn(-c3ccccn3)n2)cc1 [Compound 87, 2-[3-(2-Benzyloxy-naphthalen-1-yl)-pyrazol-1-yl]-pyridine] |  | < 4.49 | 
c1ccc(-c2n[nH]c(-c3cccc4ccccc34)n2)nc1 [Compound 350, 2-(5-Naphthalen-1-yl-1H-[1,2,4]triazol-3-yl)-pyridine] |  |  | < 4.72
Oc1ccc(F)cc1-c1nc(-c2ccc(C(F)(F)F)cn2)n[nH]1 [Compound 509, 4-Fluoro-2-[5-(5-trifluoromethyl-pyridin-2-yl)-2H-[1,2,4]triazol-3-yl]-phenol] | < 4.72 |  | 
COc1ccc(-c2ccn(-c3ccccn3)n2)c(F)c1 [Compound 53, 2-[3-(2-Fluoro-4-methoxy-phenyl)-pyrazol-1-yl]-pyridine] |  | < 4.49 | 
COc1ccc(-c2ccn(-c3ncc(C(F)(F)F)cc3Cl)n2)c(F)c1 [Compound 47, 3-Chloro-2-[3-(2-fluoro-4-methoxy-phenyl)-pyrazol-1-yl]-5-trifluoromethyl-pyridine] |  | 5.22 | 
O=[N+]([O-])c1ccc(-c2nc(-c3nccc4ccccc34)no2)c(Cl)c1 [Compound 212] |  | < 4.49 | < 4.49
COc1ccc(OCc2ccccc2)c(-c2ccnn2Cc2ccc3ccccc3n2)c1 [Compound 110, 2-[5-(2-Benzyloxy-5-methoxy-phenyl)-pyrazol-1-ylmethyl]-quinoline] |  | 5.10 | 
CCN(CC)c1ccc(-c2n[nH]c(-c3ncccc3C)n2)c(O)c1 [Compound 455, 5-Diethylamino-2-[5-(3-methyl-pyridin-2-yl)-2H-[1,2,4]triazol-3-yl]-phenol] |  |  | 5.09
Oc1ccccc1-c1nnc(-c2ccccc2C(F)(F)F)o1 [Compound 320, 2-[5-(2-Trifluoromethyl-phenyl)-[1,3,4]oxadiazol-2-yl]-phenol] |  |  | < 4.49
